This is an account of results in ChEMBL document CHEMBL4706758, “Novel Substituted Pyridazines as Splicing Modulators for Modulating Splicing of mRNA and Uses Thereof for Treating Diseases” (ACS Med Chem Lett, 2021).

SMILES strings stand for the structures.

A short description of assay [1]: Modulation of HTT mRNA splicing in human GM04724 cells assessed as mHTT protein potency. The assay is classed as cell-based.
Assay [2] can be described thus: Modulation of HTT mRNA exon 49b splicing in human GM04724 cells. It is filed as cell-based.
Assay [3] is described as follows: Modulation of HTT mRNA exon 49-50 splicing in human GM04724 cells. The assay is classed as cell-based.
The target of assay [4] is SMN2 pre-mRNA. The experiment in a line: Modulation of SMN2 mRNA FL splicing in spinal muscular atrophy patient fibroblasts. The assay is classed as tissue-based, Homo sapiens. The following applies: fibroblast.
The target in assay [5] is SMN2 pre-mRNA. Kind of assay: Modulation of SMN2 mRNA D7 splicing in spinal muscular atrophy patient fibroblasts. It is filed as tissue-based, Homo sapiens. The following applies: fibroblast.
Assay [6] has as its target SMN2 pre-mRNA. Kind of assay: Modulation of SMN2 mRNA FL splicing in spinal muscular atrophy patient fibroblasts assessed as SMN2 protein potency. The assay is classed as tissue-based, Homo sapiens. The following applies: fibroblast.

With `CN(c1ccc(-c2ccc(-c3cnn(C)c3)cc2O)nn1)[C@H]1C[C@@H]2CC[C@@](C)(N2)[C@H]1F`, the EC50 (in assay [1]; in assay [2]; in assay [3]; at SMN2 pre-mRNA [4]; at SMN2 pre-mRNA [6]) was 10 pM each time. This compound returned a half-inhibitory concentration (IC50) on SMN2 pre-mRNA [5] of 10 pM.
Regarding `C[C@]12CC[C@H](C[C@@H](Oc3ccc(-c4ccc(-c5cn[nH]c5)cc4O)nn3)C1)N2`, the EC50 in assay [1] amounted to 10 pM; in assay [2] it was 10 pM; in assay [3] it was 10 pM; on SMN2 pre-mRNA [4], 16000 pM; at SMN2 pre-mRNA [6], 10 pM. Also, the 50% inhibitory concentration (IC50) against SMN2 pre-mRNA [5] turned out to be 10 pM.
Regarding `COC[C@@]12CC[C@@H](C[C@H](N(C)c3ccc(-c4cc(F)c(-n5ccnc5)cc4O)nn3)C1)N2`, the EC50 (in assay [1]; in assay [2]; in assay [3]; on SMN2 pre-mRNA [4]; at SMN2 pre-mRNA [6]) was 10 pM each time. Moreover, on SMN2 pre-mRNA [5], the IC50 was determined as 10 pM.
On to `COC[C@]12CC[C@H](C[C@@H](N(C)c3ccc(-c4cc(F)c(-n5ccnc5)cc4O)nn3)C1)N2`, for which the EC50 (in assay [1]; in assay [2]; in assay [3]; on SMN2 pre-mRNA [4]; at SMN2 pre-mRNA [6]) was 10 pM in each case. This compound also registered a half-inhibitory concentration (IC50) against SMN2 pre-mRNA [5] of 10 pM.
Take `C[C@@]12CC[C@@H](C[C@H](Oc3ccc(-c4ccc(-n5ccnc5)cc4O)nn3)C1)N2`: the half-maximal effective concentration (EC50) in assay [1] was determined as 10 pM; in assay [2] it was 10 pM; in assay [3] it was 10 pM; at SMN2 pre-mRNA [4], 16000 pM; at SMN2 pre-mRNA [6], 10 pM. Besides, the IC50 on SMN2 pre-mRNA [5] came to 16000 pM.
Turning to `C[C@@]12CC[C@@H](C[C@H](Oc3ccc(-c4ccc(-c5cn[nH]c5)cc4O)nn3)C1)N2`, the EC50 (in assay [1]; in assay [2]; in assay [3]; at SMN2 pre-mRNA [4]; at SMN2 pre-mRNA [6]) was 10 pM throughout. Besides, half-maximal inhibition on SMN2 pre-mRNA [5] (IC50) required 10 pM.
